{"source": "patent US12331051B2", "about": "(priority 2021, dated 2025)", "key": {"[1]": {"target": "T1, 5-HT2A receptor (5-HT2AR) (Homo sapiens, UniProt P28223)", "T1 construct": "expressed in transfected cells; host or cells: HEK-293", "T1 sequence (P28223 whole entry)": "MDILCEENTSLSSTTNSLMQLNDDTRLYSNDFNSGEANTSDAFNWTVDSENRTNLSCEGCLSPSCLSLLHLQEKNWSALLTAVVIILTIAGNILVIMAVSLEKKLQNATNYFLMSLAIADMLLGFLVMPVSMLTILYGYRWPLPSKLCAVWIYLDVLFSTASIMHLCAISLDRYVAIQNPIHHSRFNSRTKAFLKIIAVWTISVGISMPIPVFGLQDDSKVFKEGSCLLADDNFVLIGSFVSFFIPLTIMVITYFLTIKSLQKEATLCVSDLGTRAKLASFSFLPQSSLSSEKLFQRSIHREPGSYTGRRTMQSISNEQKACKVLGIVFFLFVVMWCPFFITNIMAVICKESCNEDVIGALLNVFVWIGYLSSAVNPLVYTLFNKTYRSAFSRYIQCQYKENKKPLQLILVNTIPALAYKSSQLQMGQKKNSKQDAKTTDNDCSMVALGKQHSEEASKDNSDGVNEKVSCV", "experiment": "Functional assay in HEK-293 cells (IP1)", "assay_type": "cell-based", "protocol": "(§1) Neuro-receptor binding and functional effects of the “E559 polymorph” was examined by analyzing binding affinity [Ki (nM)], functional agonist activity [EC50 (nM)], and functional antagonist activity [IC50 (nM)] against a panel of key receptors in neurophysiological disorders. Binding and functional assays were performed at “E559 polymorph” concentrations of 0.0003, 0.003, 0.01, 0.03, 0.1, 0.3, 1, and 10 μM. In binding assays, cell membrane homogenates, expressing each receptor target, were incubated with the corresponding radio-ligand in absence or presence of several concentration of the “E559 polymorph” compound. The measurement of binding affinity of the “E559 polymorph” is represented in TABLE XIII by Ki (nM) which was calculated as percent inhibition of the binding of a radioactively labeled reference ligand at each receptor. In functional assays the HEK-293 cells expressing each receptor target were suspended in buffer and distribute in microplates and incubated for 30 minutes at room temperature or 37° C. in the presence of buffer alone (basal control), the reference agonist or antagonist, or the “E559 polymorph. Following incubation, the cells were lysed and the appropriate fluorescent probe (Ca2+ flux, cAMP, or IP1) were added for 60 minutes to measure the fluorescence transfer at the appropriate wavelength using a microplate reader. The cellular agonist effect (EC50) was calculated as a percent of control response to a known reference agonist and the cellular antagonist effect (IC50) was calculated as a percent inhibition of control reference agonist response for each receptor.\n(§2) The functional agonist activity [EC50 (nM), Emax], and functional antagonist activity [IC50 (nM)] of the 5R:8S stereoisomer of the “E559 polymorph” (5R:8S E558) was compared with the “E559 polymorph” (a 5R:8R stereoisomer) at selected serotonin receptors. The assays were performed as described in Example 6."}, "[2]": {"target": "T2, Serotonin 2B receptor (5-HT2BR) (Homo sapiens, UniProt P41595)", "T2 construct": "expressed in transfected cells; host or cells: HEK-293", "T2 sequence (P41595 whole entry)": "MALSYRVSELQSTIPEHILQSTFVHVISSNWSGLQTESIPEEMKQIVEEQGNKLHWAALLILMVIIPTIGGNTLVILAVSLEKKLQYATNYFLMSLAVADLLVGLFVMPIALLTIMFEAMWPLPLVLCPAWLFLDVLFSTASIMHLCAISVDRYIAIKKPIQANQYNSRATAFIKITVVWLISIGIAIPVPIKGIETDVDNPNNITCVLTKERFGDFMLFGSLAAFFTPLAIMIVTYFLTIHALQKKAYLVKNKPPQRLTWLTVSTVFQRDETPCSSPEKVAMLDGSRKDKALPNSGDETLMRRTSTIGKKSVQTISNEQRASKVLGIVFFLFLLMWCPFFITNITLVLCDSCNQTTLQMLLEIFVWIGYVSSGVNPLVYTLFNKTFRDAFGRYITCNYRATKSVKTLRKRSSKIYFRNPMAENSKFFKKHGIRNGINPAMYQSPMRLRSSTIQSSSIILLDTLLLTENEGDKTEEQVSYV", "experiment": "Functional assay in HEK-293 cells (IP1)", "assay_type": "cell-based", "protocol": "as §1, §2"}, "[3]": {"target": "T3, Serotonin 2C receptor (5-HT2CR) (Homo sapiens, UniProt P28335)", "T3 construct": "expressed in transfected cells; host or cells: HEK-293", "T3 sequence (P28335 33-458)": "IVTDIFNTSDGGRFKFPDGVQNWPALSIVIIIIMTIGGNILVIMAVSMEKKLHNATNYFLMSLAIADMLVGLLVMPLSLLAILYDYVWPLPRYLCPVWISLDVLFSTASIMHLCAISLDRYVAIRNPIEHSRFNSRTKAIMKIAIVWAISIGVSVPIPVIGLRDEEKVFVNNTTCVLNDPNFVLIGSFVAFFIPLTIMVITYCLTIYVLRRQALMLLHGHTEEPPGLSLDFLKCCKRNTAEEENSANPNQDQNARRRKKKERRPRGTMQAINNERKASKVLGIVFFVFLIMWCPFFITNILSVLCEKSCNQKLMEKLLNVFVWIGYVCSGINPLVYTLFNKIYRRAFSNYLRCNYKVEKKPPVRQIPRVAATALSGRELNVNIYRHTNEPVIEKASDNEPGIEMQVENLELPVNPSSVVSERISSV", "experiment": "Functional assay in HEK-293 cells (IP1)", "assay_type": "cell-based", "protocol": "(§3) Neuro-receptor binding and functional effects of the “E559 polymorph” was examined by analyzing binding affinity [Ki (nM)], functional agonist activity [EC50 (nM)], and functional antagonist activity [IC50 (nM)] against a panel of key receptors in neurophysiological disorders. Binding and functional assays were performed at “E559 polymorph” concentrations of 0.0003, 0.003, 0.01, 0.03, 0.1, 0.3, 1, and 10 μM. In binding assays, cell membrane homogenates, expressing each receptor target, were incubated with the corresponding radio-ligand in absence or presence of several concentration of the “E559 polymorph” compound. The measurement of binding affinity of the “E559 polymorph” is represented in TABLE XIII by Ki (nM) which was calculated as percent inhibition of the binding of a radioactively labeled reference ligand at each receptor. […] Following incubation, the cells were lysed and the appropriate fluorescent probe (Ca2+ flux, cAMP, or IP1) were added for 60 minutes to measure the fluorescence transfer at the appropriate wavelength using a microplate reader. The cellular agonist effect (EC50) was calculated as a percent of control response to a known reference agonist and the cellular antagonist effect (IC50) was calculated as a percent inhibition of control reference agonist response for each receptor."}, "D1 dopamine receptor": {"target": "D1 dopamine receptor (Homo sapiens, UniProt P21728)", "sequence (P21728 whole entry)": "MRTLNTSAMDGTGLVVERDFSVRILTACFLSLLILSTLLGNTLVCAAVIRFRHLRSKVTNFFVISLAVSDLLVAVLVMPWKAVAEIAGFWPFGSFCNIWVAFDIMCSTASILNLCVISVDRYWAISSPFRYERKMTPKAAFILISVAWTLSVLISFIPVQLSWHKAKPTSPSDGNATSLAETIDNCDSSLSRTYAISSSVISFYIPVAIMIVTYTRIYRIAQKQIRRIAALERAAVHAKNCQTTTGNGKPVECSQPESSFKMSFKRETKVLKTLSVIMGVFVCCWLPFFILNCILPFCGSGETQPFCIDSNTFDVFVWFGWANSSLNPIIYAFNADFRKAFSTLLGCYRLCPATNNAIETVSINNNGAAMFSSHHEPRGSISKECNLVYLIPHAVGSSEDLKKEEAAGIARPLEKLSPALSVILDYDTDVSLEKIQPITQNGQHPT", "experiment": "Functional assay in HEK-293 cells (cAMP)", "assay_type": "cell-based", "parameters": "expressed in transfected cells; host or cells: HEK-293", "protocol": "as §3"}, "stress naive mice": {"system": "stress naive mice", "experiment": "Open field test (OFT), stress naive mice", "assay_type": "in vivo, mouse", "protocol": "In brief, stress naive mice were treated (IP injection) with either saline (control) or single dose of the “E559 polymorph” at 0.3, 1, or 3 mg/kg dose levels and were evaluated 24 hours (OFT) and […] after treatment. The OFT was performed described in Example 13. The FST was performed as previously described in (Aguilar-Valles et al., Nature, 2021, 590, p315-319). Briefly FST was performed 24-hour post treatment by placing the mice (one by one) in a 4-liter wide-mouthed flask of 35° C. water. Mice activities were recorded for 6 minutes and assessed for total time the animal remains immobile, a sign of depressive-like behavior. FIG. 25A depicts the study design where female/male mice (n=10/group/sex) were treated by IP injection with the “E559 polymorph” or vehicle (saline) followed by open field and force swim test 24 hours post treatment. FIGS. 25B and 25E represent the total distance travelled in the open field test 24 hours after vehicle or the “E559 polymorph” in female and male mice, respectively. FIGS. 25C and 25F represent the time in the center of the open field by female and male mice, respectively. FIGS. 25D and 25G represent the immobility time during the last 4 minutes of the forced swim test in female and male mice, respectively. Horizontal lines represent the mean±standard error of the mean (S.E.M.) and asterisks indicate statistical significances."}, "5-HT1F": {"target": "T4, 5-HT1F (Homo sapiens, UniProt P30939)", "T4 construct": "expressed in transfected cells; host or cells: HEK-293", "T4 sequence (P30939 1-366)": "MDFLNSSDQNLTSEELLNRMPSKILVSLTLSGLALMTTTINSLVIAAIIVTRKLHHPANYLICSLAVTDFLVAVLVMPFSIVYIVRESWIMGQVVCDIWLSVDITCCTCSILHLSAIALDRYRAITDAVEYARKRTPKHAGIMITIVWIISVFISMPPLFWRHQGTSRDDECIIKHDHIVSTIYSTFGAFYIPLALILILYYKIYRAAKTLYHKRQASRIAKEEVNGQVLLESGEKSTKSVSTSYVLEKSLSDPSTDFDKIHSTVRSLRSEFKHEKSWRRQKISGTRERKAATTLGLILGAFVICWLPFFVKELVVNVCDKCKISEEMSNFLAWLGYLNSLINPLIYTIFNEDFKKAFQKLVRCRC", "experiment": "Functional assay (cAMP)", "assay_type": "cell-based", "protocol": "as §1, §2"}, "[4]": {"target": "ADRa2A (α2A adrenergic receptor) (Homo sapiens, UniProt P08913)", "sequence (P08913 whole entry)": "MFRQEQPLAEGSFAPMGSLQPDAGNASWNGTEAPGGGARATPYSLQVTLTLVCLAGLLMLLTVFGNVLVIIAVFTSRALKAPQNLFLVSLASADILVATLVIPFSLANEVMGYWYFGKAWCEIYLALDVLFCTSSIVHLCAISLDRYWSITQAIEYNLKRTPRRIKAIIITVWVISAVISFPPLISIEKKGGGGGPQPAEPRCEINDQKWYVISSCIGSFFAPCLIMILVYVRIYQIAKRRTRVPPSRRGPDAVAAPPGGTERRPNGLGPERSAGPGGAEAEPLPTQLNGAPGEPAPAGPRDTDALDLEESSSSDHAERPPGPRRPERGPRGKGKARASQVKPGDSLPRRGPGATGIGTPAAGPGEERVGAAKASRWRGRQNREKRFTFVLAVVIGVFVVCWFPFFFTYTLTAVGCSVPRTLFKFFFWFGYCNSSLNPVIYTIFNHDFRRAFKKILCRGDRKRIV", "experiment": "BRET-based G protein dissociation assay", "assay_type": "cell-based"}, "[5]": {"target": "H3 histaminergic receptor (Homo sapiens, UniProt Q9Y5N1)", "sequence (Q9Y5N1 whole entry)": "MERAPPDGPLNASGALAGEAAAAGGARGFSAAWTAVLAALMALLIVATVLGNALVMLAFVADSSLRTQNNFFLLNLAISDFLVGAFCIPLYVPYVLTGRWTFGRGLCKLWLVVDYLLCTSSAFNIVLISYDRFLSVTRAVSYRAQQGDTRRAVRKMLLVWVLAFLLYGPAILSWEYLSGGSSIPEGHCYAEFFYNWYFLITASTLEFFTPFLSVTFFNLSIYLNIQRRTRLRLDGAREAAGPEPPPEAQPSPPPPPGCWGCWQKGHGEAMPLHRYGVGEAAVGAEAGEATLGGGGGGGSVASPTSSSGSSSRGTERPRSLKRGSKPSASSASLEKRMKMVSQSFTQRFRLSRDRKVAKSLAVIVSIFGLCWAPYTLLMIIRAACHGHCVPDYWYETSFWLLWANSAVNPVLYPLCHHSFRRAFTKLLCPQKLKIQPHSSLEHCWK", "experiment": "BRET-based G protein dissociation assay", "assay_type": "cell-based", "details": "percentage of the reference ligand-induced maximal response"}, "[6]": {"details": "HEK293, IP1, ligand 5-HT, read-out: Functional Assay (agonist) Emax"}, "[7]": {"details": "read-out: Funcational Assay (antagonist) IC50, IP1, ligand 5-HT"}, "[8]": {"details": "read-out: Functional Assay (agonist) EC50, IP1, ligand 5-HT"}}, "note": "Like-named read-outs stand apart in the source and are kept apart here."}
{"compound": "CCN(CC)C(=O)[C@@H]1C=C2c3cccc4[nH]c(Br)c(c34)C[C@H]2N(C)C1", "note": "[E559, (5R, 8R)-2-Bromo-9,10-didehydro-N,N-diethyl-6-methylergoline-8-carboxamide hemi-D-tartrate]", "values": [{"measurement": "EC50", "setting": "[1]", "value": 0.011, "unit": "µM"}, {"measurement": "IC50", "setting": "[1]", "value": 0.0249, "unit": "µM"}, {"measurement": "Emax", "setting": "[1]; [6]", "value": 99, "unit": "%"}, {"measurement": "IC50", "setting": "[1]; [7]", "value": 0.0249, "unit": "µM"}, {"measurement": "EC50", "setting": "[1]; [8]", "value": 0.011, "unit": "µM"}, {"measurement": "EC50", "setting": "[2]", "value": "> 10", "unit": "µM"}, {"measurement": "IC50", "setting": "[2]", "value": 0.097, "unit": "µM"}, {"measurement": "Emax", "setting": "[2]; [6]", "value": 0, "unit": "%"}, {"measurement": "IC50", "setting": "[2]; [7]", "value": 0.097, "unit": "µM"}, {"measurement": "EC50", "setting": "[2]; [8]", "value": "> 10", "unit": "µM"}, {"measurement": "EC50", "setting": "[3]", "value": "> 10", "unit": "µM"}, {"measurement": "IC50", "setting": "[3]", "value": 1.1, "unit": "µM"}, {"measurement": "EC50", "setting": "D1 dopamine receptor", "value": "> 10", "unit": "µM"}, {"measurement": "IC50", "setting": "D1 dopamine receptor", "value": 0.82, "unit": "µM"}, {"measurement": "increase in exploration of the arena center (time in center), maximal effect", "setting": "stress naive mice; female mice, IP 1 mg/kg, 24 hours after treatment", "value": "88.18 ± 18.89", "unit": "s"}, {"measurement": "exploration of the arena center", "setting": "stress naive mice; female mice, IP 1 and 3 mg/kg, 24 hours after treatment", "value": "increased exploration of the arena center"}, {"measurement": "increased exploration of the stressogenic area of the open field", "setting": "stress naive mice; male mice, IP 0.3, 1 or 3 mg/kg", "value": "not evident in male mice"}, {"measurement": "EC50", "setting": "5-HT1F", "value": 0.0138, "unit": "µM"}, {"measurement": "Emax", "setting": "5-HT1F; cAMP, ligand 5-HT, read-out: Functional Assay (agonist) Emax", "value": 92.6, "unit": "%"}, {"measurement": "EC50", "setting": "[4]", "value": 0.282, "unit": "µM"}, {"measurement": "Kb", "setting": "[4]", "value": 0.0119, "unit": "µM"}]}
{"compound": "CCN(CC)C(=O)[C@@H]1C=C2c3cccc4[nH]cc(c34)C[C@H]2N(C)C1", "note": "[LSD, lysergic acid diethylamide, reference compound]", "values": [{"measurement": "Emax", "setting": "[5]", "value": 18.6, "unit": "%"}]}
